Experimental data published in PubChem BioAssay (NCI).
Values joined by “and” are separate entries in the source; they are usually repeats but may differ in a detail not shown here. Equal values may be shown once.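 48-hour exposure; five concentrations; linearly interpolated endpoints. GI50 = concentration required for 50% inhibition of growth. TGI marks complete inhibition of growth.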

Assays:
Test in all cases: inhibition of tumour cell growth, NCI panel, 48 h
UACC-62 melanoma = test system: UACC-62 melanoma
NCI-H23 lung = test system: NCI-H23 lung
MCF7 breast = test system: MCF7 breast
A549 NSCLC = test system: A549 NSCLC
MALME-3M melanoma = test system: MALME-3M melanoma
CAKI-1 renal = test system: CAKI-1 renal
CCRF-CEM leukemia = test system: CCRF-CEM leukemia
HOP-92 NSCLC = test system: HOP-92 NSCLC
SK-OV-3 ovarian = test system: SK-OV-3 ovarian
SR leukemia = test system: SR leukemia

Row | SMILES | GI50 (UACC-62 melanoma) | TGI (UACC-62 melanoma) | GI50 (NCI-H23 lung) | TGI (NCI-H23 lung) | GI50 (MCF7 breast) | TGI (MCF7 breast) | GI50 (A549 NSCLC) | TGI (A549 NSCLC) | GI50 (MALME-3M melanoma) | TGI (MALME-3M melanoma) | GI50 (CAKI-1 renal) | TGI (CAKI-1 renal) | GI50 (CCRF-CEM leukemia) | TGI (CCRF-CEM leukemia) | GI50 (HOP-92 NSCLC) | TGI (HOP-92 NSCLC) | GI50 (SK-OV-3 ovarian) | TGI (SK-OV-3 ovarian) | GI50 (SR leukemia) | TGI (SR leukemia)
1 | Cc1ccc(NC(=O)Cn2c(Br)nc3c2c(=O)n(C)c(=O)n3C)cc1 | 11.1 µM | 24.2 µM | 6.31 µM | 22 µM | 3.91 µM | 18.3 µM | 5.61 µM | 24.5 µM | 2.33 µM | 7.01 µM | 4.32 µM | 16.3 µM | 17.3 µM | 65.8 µM | 1.9 µM | 5.29 µM | 2.15 µM | 4.52 µM | 8.96 µM | 35.5 µM
2 | CSC1=NS(=O)(=O)c2cc(C(=O)NN(C)C(=O)c3cc4c(cc3Cl)SC(SC)=NS4(=O)=O)c(Cl)cc2S1 | – | – | – | > 10 µM | – | > 10 µM | – | > 10 µM | – | > 10 µM | – | > 10 µM | – | > 10 µM | – | > 10 µM | – | > 10 µM | – | > 10 µM
3 | CC[C@@]1(O)C(=O)OCc2c1cc1n(c2=O)Cc2cc3cc(N)ccc3nc2-1 | 0.00212 µM | 0.0393 µM and < 0.021 µM | – | 0.0773 µM and 0.0247 µM | 0.00165 µM | 5.73 µM | 0.0373 µM and 0.0155 µM | 2.24 µM and 1.26 µM | 0.101 µM and 0.037 µM | 1.21 µM and 0.478 µM | 0.00361 µM and 0.026 µM | 1.62 µM and 1.21 µM | 0.1 µM | – | 0.0132 µM and < 0.025 µM | 0.773 µM and 0.247 µM | 0.035 µM | 2.64 µM and 0.756 µM | 0.0134 µM | 0.0236 µM
4 | COC(=O)C1=C(C(=O)OC)SC(=C(Cl)C(=S)Sc2ccccc2N)S1 | 19.9 µM | 78.4 µM | 10.1 µM | 25.9 µM | 16.7 µM | 34 µM | 22.3 µM | 59.2 µM | > 100 µM | > 100 µM | 41.6 µM | > 100 µM | – | – | 46.4 µM | > 100 µM | 41.3 µM | > 100 µM | 52.4 µM | > 100 µM
5 | Cc1cc(-c2nnc3n2CCCCC3)c(C)n1-c1ccc(Cl)c(Cl)c1 | 4.03 µM | 17 µM | 12.3 µM | 35.2 µM | 4.89 µM | 20.2 µM | 16.8 µM | 65.8 µM | 13.8 µM | 30.4 µM | 22.3 µM | > 100 µM | 18.5 µM | 71.5 µM | 11.9 µM | 31.9 µM | 19.2 µM | 45.7 µM | 11 µM | 45.3 µM
6 | O=S1(=O)c2ccccc2NC(=S)CC1c1ccccc1 (configuration not stated) | – | > 100 µM | – | > 100 µM | – | > 100 µM | – | > 100 µM | – | > 100 µM | – | > 100 µM | – | > 100 µM | – | – | – | > 100 µM | – | > 100 µM
7 | CCC(c1cccc(O)c1)C(CC)c1cccc(O)c1 (configuration not stated) | 3.67 µM | 16 µM | 4.08 µM | 16.6 µM | 1.62 µM | 8.04 µM | 8.58 µM | 24.2 µM | 2.1 µM | 20 µM | 11.9 µM | 33 µM | – | – | – | – | 2.76 µM | 11.1 µM | – | –
8 | CC(=O)OCC=C(CCl)CCC(Br)C(C)(C)Br (mixture of isomers) | – | > 10 µM | – | > 10 µM | – | > 10 µM | – | > 10 µM | – | > 10 µM | – | > 10 µM | – | > 10 µM | – | – | – | > 10 µM | – | –
9 | CC(=O)Nc1ccc(S(=O)(=O)NNC(=O)c2cccnc2Nc2ccc(Cl)cc2)cc1 | 8.85 µM | > 100 µM | – | – | 4.34 µM | > 100 µM | 32.4 µM | > 100 µM | > 100 µM | > 100 µM | 9.18 µM | > 100 µM | 21.3 µM | > 100 µM | > 100 µM | > 100 µM | 57.5 µM | > 100 µM | 6.35 µM | > 100 µM
10 | Cc1ccc(N=Nc2c(C)c(C#N)c(=S)n(C3OC(CO)C(O)C(O)C3O)c2-c2ccccc2)cc1 (configuration not stated) | – | 32 µM | – | 40.4 µM | – | 34.7 µM | – | > 100 µM | – | 47.7 µM | – | 92.6 µM | – | 48.1 µM | – | – | – | > 100 µM | – | –
11 | OCC1OC(n2cnc3c(/C=C(/O)c4ccccc4)ncnc32)C(O)C1O (configuration not stated) | – | > 100 µM | – | > 100 µM | – | > 100 µM | – | > 100 µM | – | > 100 µM | – | > 100 µM | – | > 100 µM | – | > 100 µM | – | – | – | > 100 µM
12 | Oc1ccccc1-c1nc2c3ccccc3c3ccccc3c2[nH]1 | 3.1 µM | 12.4 µM | 9.84 µM | 22.3 µM | 1.99 µM | 13.4 µM | 6.08 µM | 17.9 µM | 16.2 µM | 31.7 µM | 1.67 µM | 9.44 µM | 4.6 µM | 16.8 µM | 1.55 µM | 6.48 µM | 8.68 µM | 23.7 µM | – | –
13 | COc1ccc(Cn2c(Cl)c(/C=C3/C(=O)Nc4ccccc43)c3cc(OC)c(C)cc32)cc1 | 2.17 µM | 18.7 µM | 4.78 µM | > 100 µM | 5.87 µM | > 100 µM | 7.86 µM | > 100 µM | 9.44 µM | > 100 µM | 5.81 µM | > 100 µM | 4.94 µM | > 100 µM | 53.8 µM | > 100 µM | 3.56 µM | > 100 µM | – | –
14 | Nc1ccc(S(=O)(=O)NCc2nccs2)cc1 | – | 41.8 µM | – | 58.9 µM | – | 61.4 µM | – | 94.3 µM | – | – | – | 84.6 µM | – | 38.2 µM | – | 41.4 µM | – | > 100 µM | – | > 100 µM
15 | Cc1cc(=O)oc2cc(O)c(CN(C)CC(=O)O)cc12 | – | > 100 µM | – | > 100 µM | – | > 100 µM | – | > 100 µM | – | > 100 µM | – | > 100 µM | – | – | – | > 100 µM | – | – | – | > 100 µM
16 | COc1ccc(C2CC(n3nnnc3-c3ccccc3)=NN2)cc1 (configuration not stated) | 0.465 µM | 12.5 µM | 10.8 µM | 41.7 µM | 2.68 µM | 38.7 µM | – | – | 2.66 µM | 20.3 µM | 0.38 µM | 2.98 µM | 0.499 µM | 51.1 µM | 11.6 µM | 42.6 µM | 22.4 µM | 66.1 µM | 35.6 µM | > 100 µM
